Results taken from ChEMBL document CHEMBL6153025, “Multidrug-resistant bacteria quorum-sensing inhibitors: A particular focus on Pseudomonasaeruginosa” (Eur J Med Chem, 2025).
≈ marks a conversion by molar mass, not a printed value.

Columns and labels:
[1] = test system: Pseudomonas aeruginosa; assay: Antibacterial activity against Pseudomonas aeruginosa PAO1 by broth microdilution method; type: functional
[2] = test system: Pseudomonas aeruginosa; assay: Antibiofilm activity against Pseudomonas aeruginosa PAO1 assessed as inhibition of biofilm formation at 16 ug/ml incubated for 24 hrs by crystal violet staining based assay relative to control; type: functional; parameters: scale not given: the % may be the effect or the level left; conditions: dose 16 µg/ml
[3] = test system: Pseudomonas aeruginosa; assay: Antivirulence activity against Pseudomonas aeruginosa PAO1 assessed as inhibition of pyocyanin production at 16 ug/ml relative to control; type: functional; parameters: scale not given: the % may be the effect or the level left; conditions: dose 16 µg/ml
[4] = test system: Pseudomonas aeruginosa; assay: Antivirulence activity against Pseudomonas aeruginosa PAO1 assessed as inhibition of rhamnolipid production at 16 ug/ml relative to control; type: functional; parameters: scale not given: the % may be the effect or the level left; conditions: dose 16 µg/ml
[5] = test system: Pseudomonas aeruginosa; assay: Downregulation of pqsA mRNA expression in Pseudomonas aeruginosa PAO1; type: functional
[6] = test system: Pseudomonas aeruginosa; assay: Downregulation of pqsR mRNA expression in Pseudomonas aeruginosa PAO1; type: functional
[7] = test system: Pseudomonas aeruginosa; assay: Antibiofilm activity against Pseudomonas aeruginosa PAO1 assessed as inhibition of biofilm formation incubated for 24 hrs by crystal violet staining based assay; type: functional, organism-based; conditions: PAO1, 24 h
[8] = test system: Pseudomonas aeruginosa; assay: Antibacterial activity against Pseudomonas aeruginosa PAO1 assessed as bacterial growth inhibition after 24 hrs by liquid microdilution method; type: functional
[9] = test system: Pseudomonas aeruginosa; assay: Downregulation of lasR mRNA expression in Pseudomonas aeruginosa PAO1 at 16 ug/ml relative to control; type: functional; conditions: dose 16 µg/ml
[10] = test system: Pseudomonas aeruginosa; assay: Downregulation of lasI mRNA expression in Pseudomonas aeruginosa PAO1 at 16 ug/ml relative to control; type: functional; conditions: dose 16 µg/ml
[11] = test system: Pseudomonas aeruginosa; assay: Downregulation of rhlR mRNA expression in Pseudomonas aeruginosa PAO1 at 160 ug/ml incubated for 6 hrs by RT-qPCR analysis relative to control; type: functional; conditions: dose 160 µg/ml
[12] = test system: Pseudomonas aeruginosa; assay: Downregulation of rhlI mRNA expression in Pseudomonas aeruginosa PAO1 at 160 ug/ml incubated for 6 hrs by RT-qPCR analysis relative to control; type: functional; conditions: dose 160 µg/ml
[13] = test system: Pseudomonas aeruginosa; assay: Downregulation of lasA mRNA expression in Pseudomonas aeruginosa PAO1 at 160 ug/ml incubated for 6 hrs by RT-qPCR analysis relative to control; type: functional; conditions: dose 160 µg/ml
[14] = test system: Pseudomonas aeruginosa; assay: Downregulation of lasB mRNA expression in Pseudomonas aeruginosa PAO1 at 160 ug/ml incubated for 6 hrs by RT-qPCR analysis relative to control; type: functional; conditions: dose 160 µg/ml
[15] = test system: Pseudomonas aeruginosa; assay: Antibiofilm activity against Pseudomonas aeruginosa PAO1; type: functional, organism-based
[16] = test system: Pseudomonas aeruginosa; assay: Downregulation of lasR mRNA expression level in Pseudomonas aeruginosa PAO1 at 200 uM by RT-PCR analysis relative to control; type: functional
[17] = test system: Pseudomonas aeruginosa; assay: Downregulation of lasI mRNA expression level in Pseudomonas aeruginosa PAO1 at 200 uM by RT-PCR analysis relative to control; type: functional
[18] = test system: Pseudomonas aeruginosa; assay: Downregulation of rhlR mRNA expression level in Pseudomonas aeruginosa PAO1 at 200 uM by RT-PCR analysis relative to control; type: functional
[19] = test system: Pseudomonas aeruginosa; assay: Downregulation of rhlI mRNA expression level in Pseudomonas aeruginosa PAO1 at 200 uM by RT-PCR analysis relative to control; type: functional
[20] = test system: Pseudomonas aeruginosa; assay: Antibacterial activity against Pseudomonas aeruginosa ATCC 27853 assessed as bacterial growth inhibition by agar diffusion assay; type: functional
[21] = test system: Pseudomonas aeruginosa; assay: Antibacterial activity against Pseudomonas aeruginosa ATCC 27853; type: functional, organism-based
[22] = test system: Pseudomonas aeruginosa; assay: Antivirulence activity against Pseudomonas aeruginosa PAO1 assessed as inhibition of pyocyanin production at 25 ug/ml incubated for 16 hrs under agitation by photometric analysis relative to control; type: functional; parameters: scale not given: the % may be the effect or the level left; conditions: dose 25 µg/ml
[23] = test system: Pseudomonas aeruginosa; assay: Downregulation of lasB mRNA level in Pseudomonas aeruginosa PAO1; type: functional
[24] = test system: Pseudomonas aeruginosa; assay: Downregulation of lasR mRNA expression in Pseudomonas aeruginosa PAO1; type: functional
[25] = test system: Pseudomonas aeruginosa; assay: Antibiofilm activity against Pseudomonas aeruginosa PAO1 assessed as inhibition of biofilm formation at 100 uM relative to control; type: functional; parameters: scale not given: the % may be the effect or the level left
[26] = Inhibition of quorum sensing system in Pseudomonas aeruginosa PAO1 expressing lasB-gfp at 10 uM relative to control
[27] = test system: Pseudomonas aeruginosa; assay: Antibiofilm activity against Pseudomonas aeruginosa ATCC 15442 assessed as inhibition of biofilm formation at 16 ug/ml relative to control; type: functional; parameters: scale not given: the % may be the effect or the level left; conditions: dose 16 µg/ml
[28] = test system: Pseudomonas aeruginosa; assay: Antibacterial activity against Pseudomonas aeruginosa ATCC 15442 assessed as reduction in bacterial cell growth incubated for 18 hrs by two fold serial microdilution method; type: functional
[29] = Inhibition of quorum sensing system in Pseudomonas aeruginosa PAO1 expressing lasB-gfp at 16 uM relative to control
[30] = test system: Pseudomonas aeruginosa; assay: Antibiofilm activity against Pseudomonas aeruginosa ATCC 27853 assessed as reduction in biofilm formation at 10 uM relative to control; type: functional; parameters: scale not given: the % may be the effect or the level left
[31] = target: T1, Transcriptional activator protein LasR (Pseudomonas aeruginosa (strain ATCC 15692 / PAO1 / 1C / PRS 101 / LMG12228)) (UniProt P25084); assay: Inhibition of LasR-mediated quorum sensing system in Pseudomonas aeruginosa PAO1 at 128 ug/ml relative to control; conditions: dose 128.0 µg/ml
T1 sequence (whole entry): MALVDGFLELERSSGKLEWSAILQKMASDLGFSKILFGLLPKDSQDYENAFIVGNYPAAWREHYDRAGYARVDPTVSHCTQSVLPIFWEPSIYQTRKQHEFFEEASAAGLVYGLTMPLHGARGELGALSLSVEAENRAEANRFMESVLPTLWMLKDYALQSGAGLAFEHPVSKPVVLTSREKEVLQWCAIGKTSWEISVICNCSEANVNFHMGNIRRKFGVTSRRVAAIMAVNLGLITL

[32] = Inhibition of quorum sensing system in Pseudomonas aeruginosa PA14 assessed as inhibition of pyocyanin production at 128 ug/ml relative to control; conditions: dose 128.0 µg/ml
[33] = test system: Pseudomonas aeruginosa; assay: Antibiofilm activity against Pseudomonas aeruginosa PA14 assessed as inhibition of biofilm formation at 16 ug/ml incubated for 24 hrs by microscopic analysis relative to control; type: functional; parameters: scale not given: the % may be the effect or the level left; conditions: dose 16 µg/ml
[34] = test system: Pseudomonas aeruginosa; assay: Downregulation of rhlA mRNA level in Pseudomonas aeruginosa PAO1 at 10 uM by RT-qPCR analysis; type: functional
[35] = Inhibition of quorum sensing system in Pseudomonas aeruginosa PAO1 expressing lasB-gfp assessed as inhibition of lasB expression at 50 ug/ml incubated for 8 hrs by microplate reader based analysis relative to control; conditions: dose 50.0 µg/ml

COc1ccc([C@H](CNC(=O)Nc2ccccc2F)c2c[nH]c3ccccc23)cc1OC
MIC [1]: 500 µM (≈ 217 µg/mL) | Activity [2]: 67.32% | Activity [3]: 74.27% | Activity [4]: 66.4% | Activity [5]: 90% | Activity [6]: 90%

O=C/C=C/c1ccccc1
IC50 [7]: 2.29 µM | MIC [8]: 11.3 µM (≈ 1.5 µg/mL) | Activity [9]: 98.56% | Activity [10]: 86% | Activity [11]: 99% | Activity [12]: 70% | Activity [13]: 65% | Activity [14]: 28%

O=c1cc(-c2ccc(O)c(O)c2)oc2cc(O)cc(O)c12 [LUTEOLIN]
IC50 [15]: 50 µM | Activity [16]: 98% | Activity [17]: 98% | Activity [18]: 98% | Activity [19]: 98%

COc1ccc(C(=O)CSc2nc3ccccc3s2)c(OC)c1
MIC [20]: > 512 µg/mL | IC50 [21]: 45.5 µg/mL (≈ 132 µM)

O=C(O)c1ccccc1O [SALICYLIC ACID]
IC50 [7]: 3.62 µM | MIC [8]: 11.3 µM (≈ 1.57 µg/mL) | Activity [22]: 32% | Activity [9]: 78% | Activity [10]: 60% | Activity [11]: 70% | Activity [12]: 82% | Activity [13]: 31% | Activity [14]: 22%

Cc1nc2ccccc2nc1CSc1nc2ccccc2c(=O)n1-c1ccc(F)cc1
MIC [1]: 500 µM (≈ 214 µg/mL) | Activity [2]: 46.37% | Activity [5]: 90% | Activity [6]: 90%

COc1ccccc1N1CCN(c2ccnc(SCC(=O)Nc3c(C)cc(C)cc3C)n2)CC1
MIC [1]: 500 µM (≈ 239 µg/mL) | Activity [2]: 52.4% | Activity [3]: 76.56% | Activity [4]: 62.46% | Activity [23]: 85% | Activity [24]: 85%

O=Cc1ccc2c(c1)OC(c1ccc(O)c(O)c1)O2 (stereo not given)
Activity [25]: 44.63% | inhibition [26]: 30%

Cc1nc2cccc(Br)c2c(=O)n1/N=C/C=C/c1ccccc1
Activity [27]: 58% | MIC [28]: > 50 µM

CCCCC/C=C\C/C=C\CCCCCCCC(=O)O
inhibition [29]: 41%

CCCCCCCCSSc1nc2ccccc2c(=O)[nH]1
Activity [30]: 46%

O=C(CN1CCOCC1)Nc1cccc([N+](=O)[O-])c1
inhibition [31]: 45.1% | inhibition [32]: 75% | Activity [33]: 77%

C=CCSSc1nc2ccccc2c(=O)[nH]1
Activity [30]: 46%

Cc1nc2cccc(Br)c2c(=O)n1/N=C/c1ccc(O)cc1
Activity [3]: 99.5% | Activity [27]: 25% | MIC [28]: > 50 µM

COc1cc(C)c(C(=O)Oc2cc(C)c(C(=O)O)c(O)c2)c(O)c1 [EVERNIC ACID]
Activity [34]: 50% | inhibition [35]: 54%
